Among the test systems are A498; ACHN; BT-549; COLO 205; DU-145; EKVX; HOP-92; KM12; LOX IMVI; M14; MDA-MB-435; OVCAR-5; PC-3; 786-0; SNB-75; DLD-1; DMS-273; KM-20L2; SNB-78; DMS-114.
Test in all cases: DTP human tumour cell line panel, 48 h

Structures are written as SMILES.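 Compound exposure: 48 hours, 5 concentrations, 96-well plates. GI50 = concentration required for 50% inhibition of growth.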 The source made the active and inactive calls. Cut-off read from the data, not from the text of the source: active = GI50 up to about 1.1 µM and inactive = higher. Where a SMILES comes first, the peptide text is derived from it. The star is where a group is joined. OSu = O=C1CCC(=O)N1O*; OBn = c1ccc(CO*)cc1; Bn = c1ccc(C*)cc1

In the case of `Oc1ccc(Cl)cc1C1=Nn2c(COc3ccc4c(c3)CCCC4)nnc2SC1`, the GI50 with A498 was 1.49 µM (inactive); in the assay with ACHN, 15.4 µM (inactive); in the assay with BT-549, 18.3 µM (inactive); with COLO 205 it was 16 µM (inactive); in the assay with DU-145, 18.3 µM (inactive); with EKVX, 15.9 µM (inactive). For the same compound, the GI50 in the assay on HOP-92 is 3.04 µM (inactive); in the assay on KM12 it was 14.6 µM (inactive); in the assay on LOX IMVI, 14 µM (inactive); with M14, 14.2 µM (inactive); in the assay on MDA-MB-435, 17 µM (inactive); in the assay on OVCAR-5, 17.2 µM (inactive). For the same compound, in the assay on PC-3, the GI50 is 10.6 µM (inactive).

For `O=C(O)c1ccccc1/C=N\N(CCO)C1=NCCN1`, the GI50 with 786-0, in the assay on ACHN, in the assay on BT-549, in the assay on COLO 205, in the assay with DU-145 and with EKVX was > 100 µM (inactive) in each case. The GI50 in the assay on HOP-92, with KM12, in the assay with LOX IMVI, in the assay with M14, with MDA-MB-435 and in the assay on OVCAR-5 was > 100 µM (inactive) in each case. In addition, the GI50 with PC-3 is > 100 µM (inactive); in the assay on SNB-75, 93.1 µM (inactive).

Take `CCOC(=O)C1C(c2cc(OC)c(O)c(OC)c2)c2cc3c(cc2OC1(C)O)OCO3` (configuration not stated): the GI50 in the assay on ACHN was 55.2 µM (inactive); in the assay on COLO 205 it was > 100 µM (inactive); with DLD-1 it was 42.6 µM (inactive); with DMS-273, 36.9 µM (inactive); in the assay on EKVX, > 100 µM (inactive); with HOP-92, 11.5 µM (inactive). The GI50 in the assay on KM-20L2 was 64.9 µM (inactive); with LOX IMVI, 93.1 µM (inactive); in the assay with M14, 74.3 µM (inactive); with SNB-75, 16.5 µM (inactive); in the assay with SNB-78 it was 81.7 µM (inactive).

As for `Cn1ncc2c(=O)[nH]c(-c3ccccc3)nc21`, the GI50 with ACHN, in the assay on COLO 205, in the assay with DLD-1, in the assay with DMS-114, with DMS-273 and in the assay on EKVX was > 100 µM (inactive) each time. For the same compound, the GI50 in the assay on KM-20L2, with KM12, in the assay on LOX IMVI, with M14, in the assay with OVCAR-5 and with SNB-75 was > 100 µM (inactive) in each case. The GI50 in the assay on SNB-78 was > 100 µM (inactive).

As for `COc1ccc(C2C(=O)C(Cl)N2Nc2nc(C)cc(O)n2)cc1OC` (configuration not stated), the GI50 in the assay on ACHN was 19.4 µM (inactive); with COLO 205, 51.2 µM (inactive); in the assay with DMS-273, 22.1 µM (inactive); with EKVX, 56.8 µM (inactive); in the assay on HOP-92, 25.5 µM (inactive); in the assay on KM-20L2, 37 µM (inactive). The GI50 is 39.6 µM (inactive) in the assay with KM12; 18.1 µM (inactive) in the assay on LOX IMVI; 25.8 µM (inactive) in the assay on M14; > 100 µM (inactive) with OVCAR-5; 8.13 µM (inactive) in the assay on SNB-75; 21.1 µM (inactive) in the assay on SNB-78.

As for `O=c1ccn(C2OC(CN(O)CCC3C(O)C(CO)OC3n3ccc(=O)[nH]c3=O)C(O)C2O)c(=O)[nH]1` (configuration not stated), the GI50 in the assay with 786-0, in the assay on A498, in the assay on ACHN, in the assay on BT-549, in the assay on COLO 205 and in the assay with DU-145 was > 100 µM (inactive) each time. Further, the GI50 with EKVX, in the assay on HOP-92, in the assay on KM12, with LOX IMVI, with M14 and with MDA-MB-435 was > 100 µM (inactive) in each case. Besides, the GI50 in the assay with OVCAR-5, in the assay on PC-3 and in the assay on SNB-75 was > 100 µM (inactive) in each case.

As for `[N-]=[N+]=NC1(c2ccccc2)C(=O)Nc2ccccc2C1=O` (configuration not stated), the GI50 in the assay with 786-0 is 68.2 µM (inactive); in the assay on A498 it was 0.706 µM (active); with ACHN, 34.6 µM (inactive); with BT-549, 13.8 µM (inactive); with COLO 205, 71.4 µM (inactive); in the assay with DU-145, 75.5 µM (inactive). Further, the GI50 in the assay on HOP-92 was 26.1 µM (inactive); in the assay on KM12 it was 30.1 µM (inactive); with LOX IMVI, 37.5 µM (inactive); in the assay with M14, 20.4 µM (inactive); in the assay with MDA-MB-435, 11.3 µM (inactive); in the assay on OVCAR-5, 30 µM (inactive). For the same compound, the GI50 in the assay on PC-3 is 25.1 µM (inactive); in the assay with SNB-75, 60.3 µM (inactive).

With `COc1ccc2c(c1)C/C(=C\c1ccc(O)c(OC)c1)C2=O`, the GI50 in the assay with 786-0, with A498, with ACHN, with BT-549, in the assay with EKVX and in the assay with LOX IMVI was > 100 µM (inactive) each time. The GI50 in the assay with M14 is > 100 µM (inactive); with OVCAR-5, > 100 µM (inactive); with PC-3, > 100 µM (inactive); in the assay with SNB-75, 46 µM (inactive).

Turning to `NC1CC(=O)c2sc(I)cc21` (configuration not stated), the GI50 in the assay on 786-0, in the assay with A498, with ACHN, in the assay on BT-549, in the assay with COLO 205 and with DU-145 was > 100 µM (inactive) throughout. Also, the GI50 in the assay with EKVX was > 100 µM (inactive); in the assay on KM12 it was > 100 µM (inactive); with M14 it was > 100 µM (inactive); in the assay on MDA-MB-435 it was 88.7 µM (inactive); in the assay with OVCAR-5 it was > 100 µM (inactive); in the assay on PC-3 it was > 100 µM (inactive). For the same compound, in the assay with SNB-75, the GI50 was > 100 µM (inactive).

For the compound `C=C1C(=O)O[C@H]2C/C(C)=C/CC[C@@]3(C)O[C@](C)(CC[C@@H]3I)[C@@H](I)C[C@@H]12`, the GI50 in the assay on 786-0 is 4.68 µM (inactive); with A498 it was 9.68 µM (inactive); in the assay with ACHN, 7.03 µM (inactive); with BT-549, 4.75 µM (inactive); in the assay on COLO 205 it was 3.39 µM (inactive); in the assay on DU-145 it was 5.04 µM (inactive). Further, the GI50 with EKVX is 7.16 µM (inactive); in the assay on HOP-92, 5.83 µM (inactive); with KM12, 3.61 µM (inactive); with LOX IMVI, 1.56 µM (inactive); with M14, 10.9 µM (inactive); with MDA-MB-435, 3.86 µM (inactive). The GI50 is 10.2 µM (inactive) in the assay with OVCAR-5, 4.91 µM (inactive) with PC-3 and 6.03 µM (inactive) in the assay with SNB-75.

`CCOC1CC2OC(=O)C1C=C2C(=O)OC` (configuration not stated): the GI50 is 29.2 µM (inactive) in the assay on 786-0; > 100 µM (inactive) in the assay with A498; 27.8 µM (inactive) in the assay on ACHN; 19.1 µM (inactive) in the assay with COLO 205; 23 µM (inactive) in the assay on DLD-1; 20.4 µM (inactive) in the assay on DMS-114. For the same compound, the GI50 was > 100 µM (inactive) in the assay with EKVX; 32.7 µM (inactive) in the assay on HOP-92; 55.6 µM (inactive) in the assay on KM-20L2; 54.5 µM (inactive) in the assay on KM12; 87.5 µM (inactive) in the assay with LOX IMVI; 18.5 µM (inactive) in the assay with M14. In addition, the GI50 was > 100 µM (inactive) with OVCAR-5 and 37.2 µM (inactive) with SNB-78.

Turning to `CN1C(CC(O)c2ccccc2)CCCC1CC(O)(c1ccccc1)c1ccccc1` (configuration not stated), the GI50 in the assay with 786-0 was 15.7 µM (inactive); with ACHN, 19.7 µM (inactive); in the assay on COLO 205, 16.4 µM (inactive); with DU-145 it was 20.8 µM (inactive); in the assay on EKVX, 26.4 µM (inactive); with KM12 it was 18.5 µM (inactive). For the same compound, the GI50 in the assay with LOX IMVI is 20.3 µM (inactive); with M14, 16.8 µM (inactive); in the assay with OVCAR-5 it was 15 µM (inactive); in the assay on PC-3, 18.2 µM (inactive); in the assay with SNB-75 it was 19.1 µM (inactive).

Regarding `O=C1OC(c2ccccc2)=N/C1=C\c1cccnc1`, the GI50 was > 100 µM (inactive) in the assay on ACHN; 59.8 µM (inactive) in the assay on BT-549; > 100 µM (inactive) with EKVX; > 100 µM (inactive) in the assay with HOP-92; > 100 µM (inactive) in the assay with KM12; > 100 µM (inactive) with M14. Besides, the GI50 in the assay on MDA-MB-435, with OVCAR-5, in the assay with PC-3 and with SNB-75 was > 100 µM (inactive) throughout.

With `CC(C)CC(NC(=O)C(N)CCC(=O)OCc1ccccc1)C(=O)NC(COCc1ccccc1)C(=O)NC(Cc1ccccc1)C(=O)ON1C(=O)CCC1=O` (configuration not stated) (H-E(OBn)LS(Bn)F-OSu; configuration not given here), the GI50 with 786-0 is 39.1 µM (inactive); in the assay on ACHN, 31.6 µM (inactive); in the assay on DU-145 it was 27.7 µM (inactive); with EKVX it was 32.1 µM (inactive); in the assay with HOP-92 it was 15 µM (inactive); with KM12, 32.1 µM (inactive). For the same compound, the GI50 is 18.2 µM (inactive) in the assay with LOX IMVI; 33.4 µM (inactive) with M14; 33 µM (inactive) in the assay on MDA-MB-435; 28.8 µM (inactive) in the assay with OVCAR-5; 24.5 µM (inactive) with PC-3; 35.7 µM (inactive) in the assay with SNB-75.

Turning to `CC1=COC2=C(C)C(=O)C(=O)c3c(C)ccc1c32` [MANSONONE F], the GI50 is 4.1 µM (inactive) in the assay on 786-0; 20.1 µM (inactive) in the assay with A498; 8.3 µM (inactive) in the assay with ACHN; 14.2 µM (inactive) in the assay on BT-549; 2.55 µM (inactive) in the assay with COLO 205; 6.21 µM (inactive) in the assay with DU-145. For the same compound, the GI50 in the assay with EKVX is 6.92 µM (inactive); in the assay with HOP-92 it was 15.6 µM (inactive); with KM12 it was 3.93 µM (inactive); in the assay on LOX IMVI it was 3.66 µM (inactive); with M14 it was 2.86 µM (inactive); in the assay with MDA-MB-435 it was 1.9 µM (inactive). Further, the GI50 in the assay with OVCAR-5 is 18.2 µM (inactive); in the assay with PC-3, 2.49 µM (inactive); in the assay with SNB-75 it was 9.06 µM (inactive).

Broadly, the GI50 is the concentration at which growth is held to half of that of the control.
